Experimental data from PMC5437844 (Journal of medicinal chemistry, 2017).
Values after ≈ are worked out from the molar mass of the structure shown. “Also recorded” adds a separate entry of the source. Like-named read-outs stand apart in the source and are kept apart here.

Assays:
[1] = tested on: vancomycin-resistant Enterococcus faecium HM-968; assay: Multi-step resistance selection; assay type: cell-based; details: one-fold increase = MIC x → 2x
[2] = tested on: E. faecalis and E. faecium; assay: MIC and MBC against strains of E. faecalis and E. faecium; assay type: cell-based
[3] = tested on: vancomycin-resistant Enterococcus faecalis ATCC 51299; assay: Multi-step resistance selection; assay type: cell-based; details: one-fold increase = MIC x → 2x
[4] = tested on: vancomycin-resistant Enterococcus faecalis HM-201; assay: C. elegans VRE infection model; assay type: in vivo, Caenorhabditis elegans; details: 20 μg/mL, treated for 18 hours, relative to untreated worms
[5] = tested on: vancomycin-resistant Enterococcus faecium ATCC 700221; assay: Time-kill analysis; assay type: cell-based; details: 4 × MIC, 24 hour incubation, 37 °C
[6] = tested on: vancomycin-resistant Enterococcus faecalis HM-201; assay: Time-kill analysis; assay type: cell-based; details: 4 × MIC, 24 hour incubation, 37 °C
E. faecalis HM-934 = assay: Re-sensitization of VRE to vancomycin; assay type: cell-based, Enterococcus faecalis; details: for MIC: Enterococcus faecalis; for Fold-improvement in MIC of vancomycin: with ½ × MIC Compound 1
E. faecium HM-968 = assay: Re-sensitization of VRE to vancomycin; assay type: cell-based, Enterococcus faecium; details: for MIC: Enterococcus faecium; for Fold-improvement in MIC of vancomycin: with ½ × MIC Compound 1
E. faecalis NR-31975 = assay: UDP-N-acetylmuramyl-pentapeptide accumulation; assay type: cell-based, Enterococcus faecalis; details: 10 × MIC, 30 minutes
E. faecium ATCC 700221 = assay: Re-sensitization of VRE to vancomycin; assay type: cell-based, Enterococcus faecium; details: for Fold-improvement in MIC of vancomycin: with ½ × MIC Compound 1
E. faecalis HM-201 = assay: Re-sensitization of VRE to vancomycin; assay type: cell-based, Enterococcus faecalis; details: for MIC: Enterococcus faecalis; for Fold-improvement in MIC of vancomycin: with ½ × MIC Compound 1
E. faecalis ATCC 51299 = assay: Checkerboard assay; assay type: cell-based, Enterococcus faecalis; details: antibiotic in combination with compound 1
Gram-negative pathogens = assay: MIC against Gram-negative pathogens
human FPPS (HsFPPS) = human FPPS (HsFPPS) (Homo sapiens, UniProt P14324); assay: HsFPPS inhibition assay; assay type: biochemical; details: data not shown
Caco-2 = details: polarized cell monolayer; ref not given; cited from earlier work
[7] = tested on: vancomycin-resistant S. aureus (VRSA); details: cited from earlier work
E. faecalis = assay: MIC against E. faecalis isolates; details: Enterococcus faecalis
E. coli ΔtolC = assay: Bacterial Cytological Profiling; assay type: cell-based, Escherichia coli; details: 5 × MIC (25 μg/mL), two hours
[8] = polar aminoguanidine headgroup; source not stated; cited from earlier work
[9] = human liver microsomes; cited from earlier work
C. elegans AU37 = assay type: in vivo, Caenorhabditis elegans; details: 20 μg/mL, 24 hours exposure
[10] = tested on: human colorectal (HRT-18) cells; assay: MTS cytotoxicity assay; assay type: cell-based; details: for Non-toxic up to (concentration): tested 5-40 μg/mL
VRE = details: administered orally, phase II clinical trial; cited from earlier work
MRSA = details: topical; cited from earlier work
E. faecium (ATCC 700221) = assay: Re-sensitization of VRE to gentamicin; assay type: cell-based, Enterococcus faecium; details: sub-inhibitory concentration of 1; data not shown
E. faecalis (ATCC 51299) = assay: Re-sensitization of VRE to gentamicin; assay type: cell-based, Enterococcus faecalis; details: sub-inhibitory concentration of 1; data not shown
[11] = strains of E. faecalis and E. faecium
[12] = Gram-negative pathogens of Table 1, compound alone
[13] = K. pneumoniae, P. aeruginosa and E. coli, tested alone
[14] = K. pneumoniae, P. aeruginosa and E. coli, with sub-inhibitory colistin

Chain of human FPPS (HsFPPS) (P14324 whole entry): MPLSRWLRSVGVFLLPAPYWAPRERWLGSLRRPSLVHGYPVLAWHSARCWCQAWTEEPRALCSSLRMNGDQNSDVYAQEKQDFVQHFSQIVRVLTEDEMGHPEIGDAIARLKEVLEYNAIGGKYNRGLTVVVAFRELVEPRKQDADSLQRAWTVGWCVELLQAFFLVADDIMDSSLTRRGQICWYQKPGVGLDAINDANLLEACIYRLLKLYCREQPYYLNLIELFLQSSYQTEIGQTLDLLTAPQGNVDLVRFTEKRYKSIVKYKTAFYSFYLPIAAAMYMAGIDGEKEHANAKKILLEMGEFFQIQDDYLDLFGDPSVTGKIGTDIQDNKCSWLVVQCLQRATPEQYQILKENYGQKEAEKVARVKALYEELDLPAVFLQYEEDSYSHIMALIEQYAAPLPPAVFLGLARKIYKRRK

## CC(=O)NC[C@H]1CN(c2ccc(N3CCOCC3)c(F)c2)C(=O)O1 [Linezolid, reference compound]
[1]
  Shift in MIC over 14 serial passages: one-fold increase
[2]; [11]
  MBC relative to MIC: more than four-fold higher
[3]
  Shift in MIC over 14 serial passages: No increase in MIC
[4]
  Decrease in VRE burden in infected worms: unable to reduce the burden of VRE
[5]
  Time-kill result (complete eradication of bacteria): not able to generate a 10^3 × reduction in VRE CFU over 24 hours
[6]
  Time-kill result (complete eradication of bacteria): not able to generate a 10^3 × reduction in VRE CFU over 24 hours

## CN[C@H](CC(C)C)C(=O)N[C@H]1C(=O)N[C@@H](CC(N)=O)C(=O)N[C@H]2C(=O)N[C@H]3C(=O)N[C@H](C(=O)N[C@H](C(=O)O)c4cc(O)cc(O)c4-c4cc3ccc4O)[C@H](O)c3ccc(c(Cl)c3)Oc3cc2cc(c3O[C@@H]2O[C@H](CO)[C@@H](O)[C@H](O)[C@H]2O[C@H]2C[C@](C)(N)[C@H](O)[C@H](C)O2)Oc2ccc(cc2Cl)[C@H]1O [Vancomycin]
E. faecalis HM-934; HM934, read-out: MIC of vancomycin, + ½ × MIC Compound 1
  MIC: > 128 µg/mL
E. faecalis HM-934; HM934, read-out: MIC of vancomycin, vancomycin alone
  MIC: > 512 µg/mL
E. faecalis HM-934
  Fold-improvement in MIC of vancomycin: No change
E. faecalis HM-934; listed as vancomycin
  Fold-improvement in MIC of vancomycin: no resensitization
E. faecium HM-968; HM968, read-out: MIC of vancomycin, + ½ × MIC Compound 1
  MIC: > 128 µg/mL
E. faecium HM-968; HM968, read-out: MIC of vancomycin, vancomycin alone
  MIC: 1020 µg/mL
E. faecium HM-968
  Fold-improvement in MIC of vancomycin: No change
E. faecium HM-968; listed as vancomycin
  Fold-improvement in MIC of vancomycin: no resensitization
E. faecalis NR-31975
  UDP-N-acetylmuramyl pentapeptide accumulation: large increases
E. faecium ATCC 700221; Enterococcus faecium, ATCC700221, read-out: MIC of vancomycin, vancomycin alone
  MIC: 256 µg/mL
E. faecium ATCC 700221
  Fold-improvement in MIC of vancomycin: 256-fold
E. faecium ATCC 700221; listed as vancomycin
  Fold-improvement in MIC of vancomycin: 256 fold
E. faecalis HM-201; HM201, read-out: MIC of vancomycin, + ½ × MIC Compound 1
  MIC: > 128 µg/mL
E. faecalis HM-201; HM201, read-out: MIC of vancomycin, vancomycin alone
  MIC: 512 µg/mL
E. faecalis HM-201
  Fold-improvement in MIC of vancomycin: No change
E. faecalis HM-201; listed as vancomycin
  Fold-improvement in MIC of vancomycin: no resensitization

## CC1(C)S[C@@H]2[C@H](NC(=O)[C@H](N)c3ccccc3)C(=O)N2[C@H]1C(=O)O [ampicillin]
E. faecalis ATCC 51299
  FIC index: 3.00

## CCCCc1ccc(-c2nc(C)c(/C(C)=N/NC(=N)N)s2)cc1 [Compound 1]
[1]
  Shift in MIC over 14 serial passages: no shift in the MIC
Gram-negative pathogens; [12]
  MIC: 8 to 64 µg/mL (≈ 24.3 to 194 µM)
Human FPPS (HsFPPS)
  Inhibition of FPPS: no inhibition
Caco-2
  Caco-2 permeability, apical to basolateral: limited ability to cross from the apical to basolateral surface
[7]
  Resensitization of VRSA to vancomycin: resensitizes; also recorded: capable of resensitizing
E. faecalis
  MIC: 1 to 8 µg/mL (≈ 3.04 to 24.3 µM)
E. coli ΔtolC
  Cytological effect: cells lysed and formed spheroplasts
E. faecalis NR-31975
  UDP-N-acetylmuramyl pentapeptide accumulation: large increases
[2]; [11]
  MBC relative to MIC: equal to or one-fold higher
[3]
  Shift in MIC over 14 serial passages: one-fold increase
[8]
  pKa: ~ 7
[9]
  Affinity to hepatic microsomal enzymes: high affinity to hepatic microsomal enzymes
[5]
  Time-kill result (complete eradication of bacteria): within two hours
C. elegans AU37
  Percent viable worms: All worms survived
[6]
  Time-kill result (complete eradication of bacteria): within two hours
[10]; 24 hours incubation
  Non-toxic up to (concentration): 20 µg/mL
[10]; two hours incubation
  Non-toxic up to (concentration): 20 µg/mL

## O=C(O)c1cn(C2CC2)c2cc(N3CCNCC3)c(F)cc2c1=O [ciprofloxacin]
E. faecalis ATCC 51299
  FIC index: 0.50

## Ramoplanin
VRE
  Patients with suppressed gastrointestinal colonization of VRE: up to 90%

## C/C(=N\NC(=N)N)c1sc(-c2ccc(-c3ccccc3)cc2)nc1C [Compound 2]
[1]
  Shift in MIC over 14 serial passages: one-fold increase
Gram-negative pathogens; [12]
  MIC: > 128 µg/mL
Gram-negative pathogens; [13]
  MIC: > 128 µg/mL
Gram-negative pathogens; [14]
  MIC: 1 to 4 µg/mL (≈ 2.86 to 11.4 µM)
[7]
  Resensitization of VRSA to vancomycin: capable of resensitizing
E. faecalis
  MIC: 16 µg/mL (≈ 45.8 µM)
[2]; against E. faecium
  MBC relative to MIC: more than four-fold higher
[3]
  Shift in MIC over 14 serial passages: a one-fold increase in MIC was observed after the sixth passage and an additional two-fold increase was observed after the eleventh passage
[8]
  pKa: ~ 7
[5]
  Time-kill result (complete eradication of bacteria): not capable of completely eradicating the bacteria
[6]
  Time-kill result (complete eradication of bacteria): within two hours
[10]; 24 hours incubation
  Toxic at (concentration): 40 µg/mL
  Non-toxic up to (concentration): 20 µg/mL
[10]; two hours incubation
  Non-toxic up to (concentration): 40 µg/mL

## CCCCC#Cc1ccc(-c2nc(C)c(/C(C)=N/NC(=N)N)s2)cc1 [Compound 3]
[1]
  Shift in MIC over 14 serial passages: no shift in the MIC
Gram-negative pathogens; [12]
  MIC: > 128 µg/mL
Gram-negative pathogens; [13]
  MIC: > 128 µg/mL
Gram-negative pathogens; [14]
  MIC: 1 to 4 µg/mL (≈ 2.83 to 11.3 µM)
Caco-2
  Caco-2 permeability, apical to basolateral: limited ability to cross from the apical to basolateral surface
E. faecalis
  MIC: 1 to 8 µg/mL (≈ 2.83 to 22.6 µM)
[2]; [11]
  MBC relative to MIC: equal to or one-fold higher
[3]
  Shift in MIC over 14 serial passages: one-fold increase
[8]
  pKa: ~ 7
[5]
  Time-kill result (complete eradication of bacteria): four hours
[6]
  Time-kill result (complete eradication of bacteria): within two hours
MRSA
  Reduction of MRSA burden in infected skin wounds: 96%
[10]; 24 hours incubation
  Toxic at (concentration): 40 µg/mL
  Non-toxic up to (concentration): 20 µg/mL
[10]; two hours incubation
  Non-toxic up to (concentration): 40 µg/mL

## CNC(C)C1CCC(N)C(OC2C(N)CC(N)C(OC3OCC(C)(O)C(NC)C3O)C2O)O1 (stereo not shown) [gentamicin]
E. faecium (ATCC 700221)
  Resensitization to gentamicin: unable to resensitize
E. faecalis (ATCC 51299)
  Resensitization to gentamicin: unable to resensitize

## C[C@H]1c2cccc(O)c2C(=O)C2=C(O)[C@]3(O)C(=O)C(C(N)=O)=C(O)[C@@H](N(C)C)[C@@H]3[C@@H](O)[C@@H]21 [doxycycline]
E. faecalis ATCC 51299
  FIC index: 2.00

## CC[C@H]1OC(=O)[C@H](C)[C@@H](O[C@H]2C[C@@](C)(OC)[C@@H](O)[C@H](C)O2)[C@H](C)[C@@H](O[C@@H]2O[C@H](C)C[C@H](N(C)C)[C@H]2O)[C@](C)(O)C[C@@H](C)C(=O)[C@H](C)[C@@H](O)[C@]1(C)O [Erythromycin, reference compound]
Gram-negative pathogens
  MIC: > 128 µg/mL
Gram-negative pathogens; [14]
  MIC: 0.5 to 1 µg/mL (≈ 0.681 to 1.36 µM)
